We go through one compound from patent publication US20150065423A1, “RAPID ACTING INJECTABLE FORMULATIONS” (Perosphere, Inc., priority 2013, published 2015).

For orientation: solubility means the dissolved amount per volume that the medium holds.

Values after ≈ are worked out from the molar mass of the structure shown.

Data set [1] in a line: Soluble concentration of nitroglycerin measured by HPLC. The settings on record: aqueous with cosolvent or surfactant or cyclodextrin. The text has this:
The resultant suspension was centrifuged and the supernatant withdrawn to become the test article. […] The results are depicted in FIG. 1.

For data set [2] the following is noted: "it is believed"; cited from earlier work.

`O=[N+]([O-])OCC(CO[N+](=O)[O-])O[N+](=O)[O-]` [nitroglycerin]: the solubility in data set [1] (soluble concentration of nitroglycerin, in presence of 5% aqueous solution of Pluronic F127) was ~3800 µg/mL; in data set [1] (soluble concentration of nitroglycerin, in presence of 5% aqueous solution of Tween 80) it was ~4500 µg/mL; in data set [1] (thermodynamic from solid, final concentration of nitroglycerin (solubility limit)), ~1000 µg/mL (≈ 4.4 mM); in data set [1] (thermodynamic from solid, soluble concentration of nitroglycerin, in presence of 20% aqueous solution of PEG3350), 2000 µg/mL. In addition, the water solubility in data set [2] was < 1000 µg/mL.
